Experimental data as given in patent US10899738B2 (THE REGENTS OF THE UNIVERSITY OF MICHIGAN, priority 2016, dated 2021).

Biological target: menin protein (Homo sapiens (Human), UniProt O00255)
Experiment: biochemical
Assay type: binding
Settings: FP competitive binding; menin protein 4 nM, FAM-MM2 probe 2 nM
Summary of the method: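 Competitive fluorescence polarization assay using FAM-labelled MLL1 peptide probe FAM-MM2 (2 nM final) preincubated with menin (4 nM final) in PBS with 0.02% bovine γ-globulin, 4% DMSO and 0.01% Triton X-100. Compounds were added and incubated 30 min at room temperature. IC50 came from nonlinear regression of competition curves, with Ki also derived.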

Sequence of menin protein (O00255 whole entry): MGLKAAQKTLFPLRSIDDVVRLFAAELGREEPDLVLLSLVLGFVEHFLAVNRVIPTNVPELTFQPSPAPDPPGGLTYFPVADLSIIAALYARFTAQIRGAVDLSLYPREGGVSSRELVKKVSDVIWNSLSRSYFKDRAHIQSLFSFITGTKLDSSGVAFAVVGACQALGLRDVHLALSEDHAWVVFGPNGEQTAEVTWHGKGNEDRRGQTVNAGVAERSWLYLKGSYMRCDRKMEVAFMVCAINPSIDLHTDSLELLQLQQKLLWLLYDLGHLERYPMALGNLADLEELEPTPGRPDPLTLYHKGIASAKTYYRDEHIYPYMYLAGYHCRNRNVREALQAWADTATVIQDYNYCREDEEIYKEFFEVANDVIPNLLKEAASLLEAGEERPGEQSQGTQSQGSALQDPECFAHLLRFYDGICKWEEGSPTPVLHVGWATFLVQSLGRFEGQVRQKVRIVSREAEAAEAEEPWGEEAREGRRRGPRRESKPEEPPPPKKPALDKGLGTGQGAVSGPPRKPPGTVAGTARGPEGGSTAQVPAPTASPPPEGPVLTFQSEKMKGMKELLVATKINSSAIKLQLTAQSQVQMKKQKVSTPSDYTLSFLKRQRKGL

Compound | Menin Binding Affinity IC50 (μM)
CCN1Cc2ccccc2C(C2CCCC2)(C2CCN(S(=O)(=O)C3CN(c4ccc(C#N)cc4)C3)CC2)C1 (stereo not shown) [compound 159, 4-(3-((4-(4-cyclopentyl-2-ethyl-1,2,3,4-tetrahydroisoquinolin-4-yl)piperidin-1-yl)sulfonyl)azetidin-1-yl)benzonitrile] | No inhibition
c1ccc2c(c1)CCNC2(c1ccncc1)C1CCCC1 (stereo not shown) [compound 78, 1-cyclopentyl-1-(pyridin-4-yl)-1,2,3,4-tetrahydroisoquinoline] | No inhibition

Same assay, conditions: FP competitive binding; menin protein 4 nM, FAM-MM2 probe 2 nM; read-out: Menin Binding Affinity IC50

Compound | IC50 [nM]
CC(=O)N[C@@H]1CCC[C@H]1C(C#N)(c1ccccc1)C1CCN(CC2CN(c3ccc(S(=O)(=O)c4ccncc4)cc3)C2)CC1 (mixture of isomers) [compound 264, rac-N-((1R,2S)-2-(cyano(phenyl)(1-((1-(4-(pyridin-4-ylsulfonyl)phenyl)azetidin-3-yl)methyl)piperidin-4-yl)methyl)cyclopentyl) acetamide] | 555
N#Cc1ccc(N2CCC(N3CCC(C4(C5CCCC5)NCCc5ccccc54)CC3)CC2)cc1 (stereo not shown) [compound 55, 4-(4-(1-cyclopentyl-1,2,3,4-tetrahydroisoquinolin-1-yl)-[1,4′-bipiperidin]-1′-yl)benzonitrile] | 669
O=C(CN1CCC(C2(C3CCCC3)NCCc3ccccc32)CC1)N1CCCC1 (stereo not shown) [compound 74, 2-(4-(1-cyclopentyl-1,2,3,4-tetrahydroisoquinolin-1-yl)piperidin-1-yl)-1-(pyrrolidin-1-yl)ethan-1-one] | 3100
N#Cc1ccc(OCCCN2CCC(C(C#N)(c3ccccc3)C3CCCCC3)CC2)cc1 (stereo not shown) [compound 294, 4-(3-(4-(cyano(cyclohexyl)(phenyl)methyl)piperidin-1-yl)propoxy)benzonitrile] | 11100
O=S(=O)(c1ccncc1)c1ccc(N2CC(CN3CCC(C4(C5CCCC5)CN(Cc5ccncc5)Cc5ccccc54)CC3)C2)cc1 (stereo not shown) [compound 53, 4-cyclopentyl-2-(pyridin-4-ylmethyl)-4-(1-((1-(4-(pyridin-4-ylsulfonyl)phenyl)azetidin-3-yl)methyl)piperidin-4-yl)-1,2,3,4-tetrahydroisoquinoline] | 1100
CNC(=O)O[C@H]1CCC[C@@H]1C(C#N)(c1ccccc1)C1CCN(CC2CN(c3ccc(C(=O)OC)cc3)C2)CC1 (mixture of isomers) [compound 373, methyl rac-4-(3-((4-(cyano((1R,2S)-2-((methylcarbamoyl)oxy)cyclopentyl)(phenyl)methyl)piperidin-1-yl)methyl)azetidin-1-yl)benzoate] | 112
COC(=O)N[C@@H]1CCC[C@H]1C(C#N)(c1ccccc1)C1CCN(CC2CN(c3ccc(S(=O)(=O)C4CC4)cc3)C2)CC1 (mixture of isomers) [compound 320, rac-methyl ((1R,2S)-2-(cyano(1-((1-(4-(cyclopropylsulfonyl)phenyl)azetidin-3-yl)methyl)piperidin-4-yl)(phenyl)methyl)cyclopentyl)carbamate] | 5100
COC(=O)N[C@H]1CCC[C@@H]1C(C#N)(c1ccccc1)C1CCN(CC2CN(c3ccc(C(F)(F)F)cc3)C2)CC1 (mixture of isomers) [compound 401, methyl rac-((1S,2R)-2-(cyano(phenyl)(1-((1-(4-(trifluoromethyl)phenyl)azetidin-3-yl)methyl)piperidin-4-yl)methyl)cyclopentyl) carbamate] | 89
N#Cc1ccc(OC2CC(N3CCC(C4(C5CCCC5)NCCc5ccccc54)CC3)C2)cc1 (single isomer, unassigned) [compound 130, 4-((1s,3s)-3-(4-(1-cyclopentyl-1,2,3,4-tetrahydroisoquinolin-1-yl)piperidin-1-yl)cyclobutoxy)benzonitrile] | 10600
N#Cc1ccc(N2CC(CN3CCC(C4(C5CCCC5)CN(C5COC5)Cc5ccccc54)CC3)C2)cc1 (stereo not shown) [compound 44, 4-(3-((4-(4-cyclopentyl-2-(oxetan-3-yl)-1,2,3,4-tetrahydroisoquinolin-4-yl)piperidin-1-yl)methyl)azetidin-1-yl)benzonitrile] | 910
CC(=O)O[C@@H]1CCC[C@H]1C(C#N)(c1ccccc1F)C1CCN(CC2CN(c3ccc(S(=O)(=O)C4CC4)cc3)C2)CC1 (mixture of isomers) [compound 311, rac-(1R,2S)-2-(cyano(1-((1-(4-(cyclopropylsulfonyl)phenyl)azetidin-3-yl)methyl)piperidin-4-yl)(2-fluorophenyl)methyl) cyclopentyl acetate] | 5700
N#Cc1ccc(OCCCN2CCC(C(CO)(c3ccccc3)C3CCCC3)CC2)cc1 (stereo not shown) [compound 37, 4-(3-(4-(1-cyclopentyl-2-hydroxy-1-phenylethyl)piperidin-1-yl)propoxy)benzonitrile] | 449
CNC(=O)O[C@H]1CCC[C@@H]1C(Cn1ccnc1C)(c1cccc(F)c1)C1CCN(CC2CN(c3ccc(Cl)cc3)C2)CC1 (mixture of isomers) [compound 413, rac-(1S,2R)-2-(1-(1-((1-(4-chlorophenyl)azetidin-3-yl)methyl)piperidin-4-yl)-1-(3-fluorophenyl)-2-(2-methyl-1H-imidazol-1-yl)ethyl)cyclopentyl methylcarbamate] | 6
CN1Cc2ccccc2C(c2ccccn2)(C2CCN(CC3CN(c4ccc(S(C)(=O)=O)cc4)C3)CC2)C1 (stereo not shown) [compound 170, 2-methyl-4-(1-((1-(4-(methylsulfonyl)phenyl)azetidin-3-yl)methyl)piperidin-4-yl)-4-(pyridin-2-yl)-1,2,3,4-tetrahydroisoquinoline] | 47600
CCC(CC)CC1(C2CCN(CCCOc3ccc(C#N)cc3)CC2)NCCc2ccccc21 (stereo not shown) [compound 252, 4-(3-(4-(1-(2-ethylbutyl)-1,2,3,4-tetrahydroisoquinolin-1-yl)piperidin-1-yl)propoxy)benzonitrile] | 1200
CNC(=O)O[C@@H]1CCC[C@H]1C(C#N)(c1ccccc1)C1CCN(CC2CN(c3ccc([N+](=O)[O-])cc3)C2)CC1 (mixture of isomers) [compound 384, rac-(1R,2S)-2-(cyano(1-((1-(4-nitrophenyl)azetidin-3-yl)methyl)piperidin-4-yl)(phenyl)methyl)cyclopentyl methylcarbamate] | 4600
CC(=O)O[C@@H]1CCC[C@H]1C1(C2CCN(CC3CN(c4ccc(S(=O)(=O)C5CC5)cc4)C3)CC2)CN(C)Cc2ccc(F)cc21 (mixture of isomers) [compound 317, rac-(1R,2S)-2-(4-(1-((1-(4-(cyclopropylsulfonyl)phenyl)azetidin-3-yl)methyl)piperidin-4-yl)-6-fluoro-2-methyl-1,2,3,4-tetrahydroisoquinolin-4-yl)cyclopentyl acetate] | 161
CNC(=O)O[C@@H]1CCC[C@H]1C(C#N)(c1ccccc1)C1CCN(CC2CN(c3ccc(S(=O)(=O)c4ccn(C)n4)cc3)C2)CC1 (mixture of isomers) [compound 231] | 68
CC(=O)O[C@@H]1CCC[C@H]1C(C#N)(c1cccc(F)c1)C1CCN(CC2CN(c3ccc(CC(F)(F)F)cc3)C2)CC1 (mixture of isomers) [compound 420, rac-(1R,2S)-2-(cyano(3-fluorophenyl)(1-((1-(4-(2,2,2-trifluoroethyl)phenyl)azetidin-3-yl)methyl)piperidin-4-yl)methyl)cyclopentyl acetate] | 11600
CN(C)S(=O)(=O)c1ccc(N2CC(CN3CCC(C4(C5CCCC5)NCCc5ccccc54)CC3)C2)cc1 (stereo not shown) [compound 88, 4-(3-((4-(1-cyclopentyl-1,2,3,4-tetrahydroisoquinolin-1-yl)piperidin-1-yl)methyl)azetidin-1-yl)-N,N-dimethylbenzenesulfonamide] | 75
CS(=O)(=O)CO[C@H]1CCC[C@@H]1C(C#N)(c1ccccc1)C1CCN(CC2CN(c3ccc(S(=O)(=O)c4ccncc4)cc3)C2)CC1 (mixture of isomers) [compound 253, rac-2-((1R,2S)-2-((methylsulfonyl)methoxy)cyclopentyl)-2-phenyl-2-(1-((1-(4-(pyridin-4-ylsulfonyl)phenyl)azetidin-3-yl)methyl)piperidin-4-yl)acetonitrile] | 14400
Cc1cc(C#N)ccc1N1CC(CN2CCC(C3(C4CCCC4)NCCc4ccccc43)CC2)C1 (stereo not shown) [compound 138, 4-(3-((4-(1-cyclopentyl-1,2,3,4-tetrahydroisoquinolin-1-yl)piperidin-1-yl)methyl)azetidin-1-yl)-3-methylbenzonitrile] | 99
N#Cc1ccc(N2CC(C(=O)N3CCC(C4(C5CCCC5)NCCc5ccccc54)CC3)C2)cc1 (stereo not shown) [compound 128, 4-(3-(4-(1-cyclopentyl-1,2,3,4-tetrahydroisoquinolin-1-yl)piperidine-1-carbonyl)azetidin-1-yl)benzonitrile] | 4100
N#Cc1ccc(OCCCN2CCC(C3(CC4CCCCC4)NCCc4ccccc43)CC2)cc1 (stereo not shown) [compound 251, 4-(3-(4-(1-(cyclohexylmethyl)-1,2,3,4-tetrahydroisoquinolin-1-yl)piperidin-1-yl)propoxy)benzonitrile] | 7100

Test system: not listed separately
Experiment: Cell growth inhibition, CellTiter-Glo Luminescent Cell Viability Assay
Assay type: cell-based
Settings: MOLM-13, 96 h, read-out: Cell Growth Inhibition IC50 (μM) MOLM13
Method: Cell growth inhibitory activity of representative menin inhibitors was determined using CellTiter-Glo® Luminescent Cell Viability Assay. Cells were seeded in 384-well white opaque cell culture plates at a density of 2,000 cells/well with serially diluted compounds and incubated at 37° C. in an atmosphere of 95% air and 5% CO2 for 4 days. Cell viability was determined using the CellTiter-Glo® Luminescent Cell Viability Assay Kit (Promega, Madison, Wis.) according to the manufacture's instruction. Briefly, a volume of CellTiter-Glo® Reagent equal to the volume of cell culture medium was added to each well, and then the plates were incubated at room temperature for 10-20 minutes. The luminescent signal was measured using a Tecan Infinite M1000 multimode microplate reader (Tecan, Morrisville, N.C.). The half maximal inhibitory concentration (IC50) was calculated using the GraphPad Prism 5 software (GraphPad Software, La Jolla, Calif.).

Compound | IC50 [µM]
N#Cc1ccc(OCCCN2CCC(C3(C4CCCC4)NCCc4ccccc43)CC2)cc1 (stereo not shown) [compound 27, 4-(3-(4-(1-cyclopentyl-1,2,3,4-tetrahydroisoquinolin-1-yl)piperidin-1-yl)propoxy)benzonitrile] | 3.6

Same assay, conditions: MV4-11, 96 h, read-out: Cell Growth Inhibition IC50 (μM) MV4; 11

Compound | IC50 [µM]
N#Cc1ccc(OCCCN2CCC(C3(C4CCCC4)NCCc4ccccc43)CC2)cc1 (stereo not shown) [compound 27, 4-(3-(4-(1-cyclopentyl-1,2,3,4-tetrahydroisoquinolin-1-yl)piperidin-1-yl)propoxy)benzonitrile] | 0.9
